Laboratory results from a compilation of properties of binary mixtures (doi:10.1021/jp403813g).

Experiment: xn = mol fraction of the nth substance listed
Conditions: 100 kPa

CS(C)=O + CCCC[n+]1ccn(C)c1.[Cl-]
Conditions	speed of sound [m/s]
313.15 K, x2 = 0	1442

CS(C)=O + CC[n+]1ccn(C)c1.[Cl-]
x2 = 0
Conditions	speed of sound [m/s]
298.15 K	1496
303.15 K	1472

CCCC[n+]1ccn(C)c1.[Cl-] + CS(C)=O
313.15 K
Conditions	speed of sound [m/s]
x1 = 0.0341	1491
x1 = 0.1122	1569
x1 = 0.2433	1650
x1 = 0.3032	1674
x1 = 0.3705	1696
x1 = 0.4746	1732
x1 = 0.5997	1773
x1 = 0.7115	1794
x1 = 0.843	1816
x1 = 0.9445	1829

CC[n+]1ccn(C)c1.[Cl-] + CS(C)=O
speed of sound [m/s]
Conditions	298.15 K	303.15 K	308.15 K	313.15 K
x1 = 0.0194	–	–	1473	1455
x1 = 0.0453	1517	–	1485	–
x1 = 0.0677	1532	1509	1498	1480
x1 = 0.0984	1551	1527	1516	–
x1 = 0.1236	1563	1539	1527	1508
x1 = 0.1619	1582	1560	1547	1528
x1 = 0.2143	–	1583	1571	1550
x1 = 0.2927	–	–	–	1586
x1 = 0.3737	1675	1652	1638	1618
x1 = 0.4429	1701	1678	1665	1645
x1 = 0.5264	1730	1709	1694	1675
x1 = 0.6072	–	1736	1723	1705
x1 = 0.7477	–	1787	1776	1758
x1 = 0.7986	1828	1812	1801	1783
x1 = 0.8501	–	1833	1822	1804
x1 = 0.8944	1869	1855	1843	1826
x1 = 0.9396	1893	1880	1869	1854
x1 = 0.9694	1910	1894	1883	1868
x1 = 1	1935	1923	1918	1894
x2 = 0.0071	1929	1914	1903	1887
